Here are results for two compounds from ChEMBL document CHEMBL1148807 (J Med Chem, 2007).

In assay [1] the target is T1, Vasopressin V1a receptor (Homo sapiens, UniProt P37288). Nature of the assay: Inhibition of human vasopressin V1a receptor expressed in COS7 cells by HTRF-FRET assay using 384-well plate membranes. It is filed as cell-based. The note with it: cos-7.
Target sequence in this assay (P37288 whole entry): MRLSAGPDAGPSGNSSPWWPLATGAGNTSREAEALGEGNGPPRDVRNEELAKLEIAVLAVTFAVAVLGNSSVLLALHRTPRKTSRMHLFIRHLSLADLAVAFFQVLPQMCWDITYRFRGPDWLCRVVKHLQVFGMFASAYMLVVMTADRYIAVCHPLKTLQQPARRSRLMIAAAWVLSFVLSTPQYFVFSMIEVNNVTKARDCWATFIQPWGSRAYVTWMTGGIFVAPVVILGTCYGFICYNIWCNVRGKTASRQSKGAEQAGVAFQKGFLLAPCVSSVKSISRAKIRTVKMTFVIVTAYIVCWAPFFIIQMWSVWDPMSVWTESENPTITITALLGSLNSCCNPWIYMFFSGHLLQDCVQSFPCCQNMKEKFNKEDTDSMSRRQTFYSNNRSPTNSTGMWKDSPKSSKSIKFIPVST
Assay [2] deals with T1, Vasopressin V1a receptor. Nature of the assay: Inhibition of human vasopressin V1a receptor expressed in COS7 cells by HTRF-FRET assay using 96-well plate cells. The class given is cell-based. The note with it: cos-7. For orientation: TR-FRET usually uses a lanthanide donor and a delayed reading to cut background.
Target sequence in this assay (P37288 whole entry): as above
Assay [3] concerns the target T1, Vasopressin V1a receptor. As to the kind of experiment: Inhibition of human vasopressin V1a receptor expressed in CHO cells by polarisation binding assay using 96-well plate membranes. It is filed as cell-based.
Target sequence in this assay (P37288 whole entry): as above
Assay [4] addresses T1, Vasopressin V1a receptor. Nature of the assay: Inhibition of human vasopressin V1a receptor expressed in COS7 cells by HTRF-FRET assay using 96-well plate membranes. The note with it: cos-7. It is filed as cell-based.
Target sequence in this assay (P37288 whole entry): as above
Assay [5] addresses T1, Vasopressin V1a receptor. As to the kind of experiment: Inhibition of human vasopressin V1a receptor expressed in CHO cells by polarisation binding assay using 384-well plate membranes. It is filed as cell-based.
Target sequence in this assay (P37288 whole entry): as above
Assay [6] deals with T1, Vasopressin V1a receptor. As to the kind of experiment: Displacement of [3H]AVP from human vasopressin V1a receptor expressed in CHO cells. The class given is cell-based. (In general: Displacement assays read how much labelled ligand stays bound in the presence of the test substance.)
Target sequence in this assay (P37288 whole entry): as above
The target in a further assay is T2, Vasopressin V1b receptor (Homo sapiens, UniProt P47901).
T2 sequence (P47901 whole entry): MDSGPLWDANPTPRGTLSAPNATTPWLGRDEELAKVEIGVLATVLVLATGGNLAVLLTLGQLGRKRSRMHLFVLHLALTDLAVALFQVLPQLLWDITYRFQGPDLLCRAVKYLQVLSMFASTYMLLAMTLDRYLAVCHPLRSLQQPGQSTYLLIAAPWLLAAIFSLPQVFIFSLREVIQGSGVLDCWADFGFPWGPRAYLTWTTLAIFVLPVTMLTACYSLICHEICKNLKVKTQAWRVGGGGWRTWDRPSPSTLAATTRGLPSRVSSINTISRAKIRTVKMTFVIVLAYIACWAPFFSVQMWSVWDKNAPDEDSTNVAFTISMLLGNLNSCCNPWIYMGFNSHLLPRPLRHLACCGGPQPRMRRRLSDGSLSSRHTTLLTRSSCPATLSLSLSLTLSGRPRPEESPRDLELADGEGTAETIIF
Nature of the assay: Displacement of [3H]AVP from human vasopressin V1b receptor expressed in CHO cells. The class given is cell-based.

The target in the next assay is T3, Oxytocin receptor (Homo sapiens, UniProt P30559).
T3 sequence (P30559 whole entry): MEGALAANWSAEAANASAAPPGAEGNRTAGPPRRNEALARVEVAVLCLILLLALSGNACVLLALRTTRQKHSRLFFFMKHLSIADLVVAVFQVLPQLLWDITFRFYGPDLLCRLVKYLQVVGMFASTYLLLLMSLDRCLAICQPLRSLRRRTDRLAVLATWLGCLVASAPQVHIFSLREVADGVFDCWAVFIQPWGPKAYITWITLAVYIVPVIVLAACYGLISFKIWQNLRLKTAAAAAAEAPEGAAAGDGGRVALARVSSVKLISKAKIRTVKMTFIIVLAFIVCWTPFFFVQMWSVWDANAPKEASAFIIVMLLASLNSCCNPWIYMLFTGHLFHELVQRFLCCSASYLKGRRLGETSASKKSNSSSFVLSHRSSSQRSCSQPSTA
As to the kind of experiment: Displacement of [3H]AVP from human oxytocin receptor expressed in CHO cells. It is filed as cell-based.

Assay [7] concerns the target T1, Vasopressin V1a receptor. Nature of the assay: Antagonist activity at human vasopressin V1a receptor expressed in CHO cells assessed as AVP-induced inositol monophosphate accumulation by IP-one ELISA test. It is filed as functional, cell-based.
Target sequence in this assay (P37288 whole entry, looked up): as the sequence (P37288 whole entry) above
The target of assay [8] is T4, Oxytocin receptor (Homo sapiens) (UniProt P30559).
T4 sequence (whole entry): T3 sequence (P30559 whole entry)
Nature of the assay: Antagonist activity at oxytocin receptor expressed in CHO cells assessed as AVP-induced inositol monophosphate accumulation by IP-one ELISA test. It is filed as functional, cell-based.

Assay [9] concerns the target T4, Oxytocin receptor (Homo sapiens). As to the kind of experiment: Agonist activity at human oxytocin receptor expressed in CHO cells assessed as accumulation of inositol phosphate up to 1 uM. It is filed as functional, cell-based.
In assay [10] the target is T1, Vasopressin V1a receptor. As to the kind of experiment: Agonist activity at human vasopressin V1a receptor expressed in CHO cells assessed as accumulation of inositol phosphate up to 1 uM. The class given is functional, cell-based.
Target sequence in this assay (P37288 whole entry, looked up): as the sequence (P37288 whole entry) above
A further assay deals with Vasopressin V2 receptor (Homo sapiens, UniProt P30518). Nature of the assay: Displacement of [3H]AVP from human vasopressin V2 receptor expressed in CHO cells. The class given is cell-based.
Sequence of Vasopressin V2 receptor (P30518 whole entry): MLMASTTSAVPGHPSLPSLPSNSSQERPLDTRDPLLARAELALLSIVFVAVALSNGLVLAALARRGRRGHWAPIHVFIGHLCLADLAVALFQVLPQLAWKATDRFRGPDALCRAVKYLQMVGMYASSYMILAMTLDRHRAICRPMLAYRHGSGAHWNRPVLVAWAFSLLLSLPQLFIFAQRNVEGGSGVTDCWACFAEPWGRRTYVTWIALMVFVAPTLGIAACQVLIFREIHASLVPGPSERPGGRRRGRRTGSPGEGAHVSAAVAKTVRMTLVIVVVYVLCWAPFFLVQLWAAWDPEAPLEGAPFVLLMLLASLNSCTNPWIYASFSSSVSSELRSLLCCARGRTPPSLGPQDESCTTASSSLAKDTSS

SMILES strings stand for the structures. Active and inactive are the calls of the source. The calls are words filed in the database; no cut-off is given here. Non-standard residues stand in square brackets, D forms with d. Residues, ends and D or L forms follow the SMILES beside them. *: point of attachment. X1 = O=C(Cc1ccc(O)cc1)*

`COc1ccc(C[C@@H](NC(=O)Cc2ccc(O)cc2)C(=O)N[C@@H](Cc2ccccc2)C(=O)N[C@@H](CCC(N)=O)C(=O)N[C@@H](CC(N)=O)C(=O)N[C@@H](CCCN=C(N)N)C(=O)N2CCC[C@H]2C(=O)N[C@@H](CCCN=C(N)N)C(N)=O)cc1` (X1-[dY](Me)FQNRPR-NH2): the Ki – broadly, the equilibrium dissociation constant of an inhibitor or competing ligand from its target – on Vasopressin V1a receptor [1] is 0.21 nM; on Vasopressin V1a receptor [2], 0.28 nM; at Vasopressin V1a receptor [3], 0.036 nM; at Vasopressin V1a receptor [4], 0.21 nM; at Vasopressin V1a receptor [5], 0.032 nM.
As to `CC1CC(C)(C)Nc2c1cc1c(c2S(=O)(=O)O)OC2C(=C1c1c(Cl)c(SCC(=O)NCCCCCC(=O)N(C(=O)[C@H]3CCN(C(=O)[C@H](CCCNC(=N)N)NC(=O)[C@H](CC(N)=O)NC(=O)[C@H](CCC(N)=O)NC(=O)[C@H](Cc4ccccc4)NC(=O)[C@@H](Cc4ccc(O)cc4)N(C)C(=O)CCc4ccc(O)cc4)C3)[C@@H](CCCCN)C(N)=O)c(Cl)c(Cl)c1C(=O)O)CC1C(=NC(C)(C)CC1C)C2S(=O)(=O)O` (stereo partly drawn), the inhibition constant Ki is 0.09 nM on Vasopressin V1a receptor [6], 100 nM at Vasopressin V1b receptor, 1.04 nM at Oxytocin receptor and over 1000 nM at Vasopressin V2 receptor. Moreover, the Kinact on Vasopressin V1a receptor [7] is 0.28 nM; in assay [8] it was 0.17 nM. In addition, the outcome (in assay [9]; on Vasopressin V1a receptor [10]) was inactive.
